Results taken from ChEMBL document CHEMBL4842342, “Amidoxime prodrugs convert to potent cell-active multimodal inhibitors of the dengue virus protease” (Eur J Med Chem, 2021).
Activity calls are given as the source filed them. The calls are words filed in the database; no cut-off is given here.

Tests used:
Genome polyprotein = Genome polyprotein (dengue virus type 2, UniProt P29990); experiment: Inhibition of DENV2 NS2B-NS3 protease
dengue virus type 2 [1] = experiment: Antiviral activity against Dengue virus 2 measured at 48 hrs post-infection; type: functional, organism-based
[2] = target: Genome polyprotein (dengue virus type 2) (UniProt P29990); experiment: Inhibition of DENV2 NS2B-NS3 protease up to 200 uM; details: dose microM <=200
Zika virus = experiment: Antiviral activity against Zika virus; type: functional, organism-based
[3] = target: Genome polyprotein (dengue virus type 2) (UniProt P29990); experiment: Inhibition of NS2B-NS3 protease in DENV2 infected in human Huh-7 cells assessed as inhibition of NS3 internal cleavage site at 10 uM treated 6 hrs […] viral infection and measured at 30 hrs post-infection by western blot analysis; type: cell-based; details: time 24.0 hrs
dengue virus type 2 [4] = experiment: Antiviral activity against DENV2 infected in human Huh-7 cells assessed as log reduction in intracellular viral RNA synthesis at 10 uM treated at 6 hrs post-viral infection and measured after 38 hrs by real time RT-PCR method; type: functional
dengue virus type 2 [5] = experiment: Antiviral activity against DENV2 infected in human Huh-7 cells assessed as reduction in intracellular viral RNA synthesis at 10 uM treated at 6 hrs post-viral infection and measured after 48 hrs by real time RT-PCR method; type: functional, organism-based
dengue virus type 2 [6] = experiment: Antiviral activity against DENV2 infected in human Huh-7 cells assessed as viral infection rate at 10 uM treated at 6 hrs post-viral infection and measured at 30 hrs post-infection by confocal microscopy (reference value: 50 to 60%); type: functional; details: time 24 hrs
dengue virus type 2 [7] = experiment: Antiviral activity against DENV2 infected in human Huh-7 cells assessed as log reduction in intracellular viral RNA synthesis at 10 uM treated at 6 hrs post-viral infection and measured after 12 hrs by real time RT-PCR method; type: functional
dengue virus type 2 [8] = experiment: Antiviral activity against DENV2 infected in human Huh-7 cells assessed as log reduction in extracellular viral RNA synthesis at 10 uM treated at 6 hrs post-viral infection and measured after 48 hrs by real time RT-PCR method; type: functional
dengue virus type 2 [9] = experiment: Antiviral activity against Dengue virus 2 EDEN2 infected in human Huh-7 cells; type: functional, organism-based; details: EDEN2, Huh-7
[10] = Cytotoxicity against human Huh-7 cells assessed as reduction in cell viability; type: cell-based
dengue virus type 2 [11] = experiment: Antiviral activity against DENV2 D2Y10 virus infected in human PBMC cells in presence of 4G2 antibody; type: functional, organism-based
[12] = Cytotoxicity against human PBMC assessed as reduction in cell viability
[13] = Dengue virus, 48 h, read-out: EC50

Compound	EC50 (dengue virus type 2 [1]; [13]) [µM]	also measured
COc1cccc(S(=O)(=O)n2c3ccc(-c4cccc(C(=N)N)c4)cc3c3cc(-c4cccc(C(=N)N)c4)ccc32)c1	26.2	IC50 (Genome polyprotein; read-out: IC50): 4.5 µM
N/C(=N\O)c1cccc(-c2ccc3c(c2)c2cc(-c4cccc(/C(N)=N/O)c4)ccc2n3CC(O)COc2ccccn2)c1 (stereo not drawn)	33.9	–
N/C(=N\O)c1cccc(-c2ccc3c(c2)c2cc(-c4cccc(/C(N)=N/O)c4)ccc2n3Cc2cc(F)cc(Br)c2)c1	1.5	–
N=C(N)c1cccc(-c2ccc3c(c2)c2cc(-c4cccc(C(=N)N)c4)ccc2n3S(=O)(=O)c2cccc(OC(F)(F)F)c2)c1	8.1	IC50 (Genome polyprotein; read-out: IC50): 3.1 µM
COc1ccc(S(=O)(=O)n2c3ccc(-c4cccc(/C(N)=N/O)c4)cc3c3cc(-c4cccc(/C(N)=N/O)c4)ccc32)cc1C	3.1	–
COc1ccc(Cn2c3ccc(-c4cccc(/C(N)=N/O)c4)cc3c3cc(-c4cccc(/C(N)=N/O)c4)ccc32)cc1F	6.9	–
Cc1ccccc1S(=O)(=O)n1c2ccc(-c3cccc(/C(N)=N/O)c3)cc2c2cc(-c3cccc(/C(N)=N/O)c3)ccc21	8.6	–
COc1cccc(Cn2c3ccc(-c4cccc(/C(N)=N/O)c4)cc3c3cc(-c4cccc(/C(N)=N/O)c4)ccc32)c1	1.8	inhibition [2]: inactive; EC50 (Zika virus): 8.7 µM
N/C(=N\O)c1cccc(-c2ccc3c(c2)c2cc(-c4cccc(/C(N)=N/O)c4)ccc2n3S(=O)(=O)c2cccc(C(F)(F)F)c2)c1	5	IC50 (Genome polyprotein): Not Active
N/C(=N\O)c1cccc(-c2ccc3c(c2)c2cc(-c4cccc(/C(N)=N/O)c4)ccc2n3S(=O)(=O)c2ccc(Br)cc2)c1	5.4	–
COc1ccc(S(=O)(=O)n2c3ccc(-c4cccc(/C(N)=N/O)c4)cc3c3cc(-c4cccc(/C(N)=N/O)c4)ccc32)cc1OC	5.7	–
N=C(N)c1cccc(-c2ccc3c(c2)c2cc(-c4cccc(C(=N)N)c4)ccc2n3S(=O)(=O)c2ccccc2OC(F)(F)F)c1	5.6	IC50 (Genome polyprotein; read-out: IC50): 9.8 µM
CN(C)CCCn1c2ccc(-c3cccc(/C(N)=N/O)c3)cc2c2cc(-c3cccc(/C(N)=N/O)c3)ccc21	–	EC50 (dengue virus type 2 [1]): Not Active
N/C(=N\O)c1cccc(-c2ccc3c(c2)c2cc(-c4cccc(/C(N)=N/O)c4)ccc2n3S(=O)(=O)c2cccc3cccnc23)c1	8.5	–
COc1ccc(S(=O)(=O)n2c3ccc(-c4cccc(/C(N)=N/O)c4)cc3c3cc(-c4cccc(/C(N)=N/O)c4)ccc32)cc1Br	2.4	–
N/C(=N\O)c1cccc(-c2ccc3c(c2)c2cc(-c4cccc(/C(N)=N/O)c4)ccc2n3S(=O)(=O)c2ccc(Br)c(F)c2)c1	7.8	–
N/C(=N\O)c1cccc(-c2ccc3c(c2)c2cc(-c4cccc(/C(N)=N/O)c4)ccc2n3S(=O)(=O)c2cccc(Cl)c2)c1	7.6	–
N=C(N)c1cccc(-c2ccc3c(c2)c2cc(-c4cccc(C(=N)N)c4)ccc2n3S(=O)(=O)c2ccccc2Br)c1	6.9	IC50 (Genome polyprotein; read-out: IC50): 8.8 µM
N/C(=N\O)c1cccc(-c2ccc3c(c2)c2cc(-c4cccc(/C(N)=N/O)c4)ccc2n3Cc2ccc(Br)c(F)c2)c1	1.4	–
COc1cccc(S(=O)(=O)n2c3ccc(-c4cccc(/C(N)=N/O)c4)cc3c3cc(-c4cccc(/C(N)=N/O)c4)ccc32)c1	8.7	inhibition [3]: Active; Activity (dengue virus type 2 [4]): inactive; Activity (dengue virus type 2 [5]): inactive; IC50 (Genome polyprotein): Not Active; Activity (dengue virus type 2 [6]): 30%; log(activity) (dengue virus type 2 [7]): 1; log(activity) (dengue virus type 2 [8]): 2
N/C(=N\O)c1cccc(-c2ccc3c(c2)c2cc(-c4cccc(/C(N)=N/O)c4)ccc2n3S(=O)(=O)c2cc(F)cc(Br)c2)c1	17.3	–
N/C(=N\O)c1cccc(-c2ccc3c(c2)c2cc(-c4cccc(/C(N)=N/O)c4)ccc2n3S(=O)(=O)c2ccc(C(F)(F)F)cc2)c1	4.9	–
COc1ccc(F)cc1S(=O)(=O)n1c2ccc(-c3cccc(/C(N)=N/O)c3)cc2c2cc(-c3cccc(/C(N)=N/O)c3)ccc21	2.8	–
N=C(N)c1cccc(-c2ccc3c(c2)c2cc(-c4cccc(C(=N)N)c4)ccc2n3Cc2cccc(Br)c2)c1	–	EC50 (dengue virus type 2 [9]): 16.4 µM; CC50 [10]: 100 µM; EC50 (dengue virus type 2 [11]): 48.1 µM; CC50 [12]: > 100 µM
COc1ccc(S(=O)(=O)n2c3ccc(-c4cccc(C(=N)N)c4)cc3c3cc(-c4cccc(C(=N)N)c4)ccc32)cc1	9.5	IC50 (Genome polyprotein; read-out: IC50): 6.6 µM
